By Kb is commonly meant the equilibrium dissociation constant of an antagonist, usually derived from a functional assay.

For this experiment, the target named is T1, human adenosine A2b receptor (Homo sapiens, UniProt P29275).
T1 construct: expressed in transfected cells; host or cells: CHO (Chinese Hamster Ovary) cells co-transfected with the reporter plasmid pCRE-LUCI
T1 sequence (P29275 1-332): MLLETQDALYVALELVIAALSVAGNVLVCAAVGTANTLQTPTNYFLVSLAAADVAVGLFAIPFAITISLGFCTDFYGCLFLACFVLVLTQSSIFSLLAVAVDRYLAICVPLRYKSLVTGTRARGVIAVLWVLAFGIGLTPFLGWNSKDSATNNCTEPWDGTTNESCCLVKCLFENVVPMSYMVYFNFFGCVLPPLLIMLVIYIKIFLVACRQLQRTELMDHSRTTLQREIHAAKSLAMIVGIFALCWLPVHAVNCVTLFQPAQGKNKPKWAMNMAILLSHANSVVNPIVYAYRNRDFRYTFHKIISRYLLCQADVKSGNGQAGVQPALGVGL
Briefly: Adenosine A2b receptor reporter gene assay (luciferase, CHO-A2b cells, NECA agonist). Format: cell-based. The settings on record: CHO cells with pCRE-LUCI and human A2b receptor; shift of NECA concentration-response curve; antagonist at 100 nM or 1 μM; KB=[antagonist]/(concentration ratio−1). The procedure:
Adenosine A2b Receptor Reporter Gene Assay a) Culturing of Chinese Hamster Ovary (CHO) A2b Cell Line
CHO cells transfected with a Luciferase-expressing reporter plasmid (pCRE-LUCI) and with a plasmid carrying the human adenosine A2b receptor structural gene (pA2bRCV) are routinely cultured in Dulbecco's Modified Eagle Medium (DMEM)—supplemented with 10% v/v fetal calf serum (FCS), 2 mM L-glutamine, 0.4 mg/ml L-proline, 1 nM sodium selenite, 0.5 mg/ml Hygromycin B and 1 mg/ml Geneticin—at 37° C., 5% CO2 and 100% humidity. The cells are left to grow to confluence for 4-5 days. The cells obtained are passaged using trypsin/EDTA and split at a ratio of 1 in 5. […]
b) Preparation of cells for assay […]
5′-N-ethylcarboxamidoadenosine (NECA), an adenosine A2b agonist, is prepared as a […] solution in DMSO and then diluted to 100 μM with Assay Buffer. […] 100 μl of Steady-Glo, a Luciferase assay substrate from Promega, is added to all wells to lyse the cells and generate luminescence in proportion to the amount of Lucifrease produced. The plates are left for a minimum of 5 minutes before being read on the luminescence program of a Topcount NXT microplate scintillation counter (ex Packard). […]
A general note: In a reporter assay the amount or activity of a reporter protein is the signal.

In the case of `O=C(Nc1cccnc1)c1cc(-c2ccncc2)n(-c2cccc(F)c2)n1` [Example 33, 1-(3-Fluoro-phenyl)-5-pyridin-4-yl-1H-pyrazole-3-carboxylic acid pyridin-3-ylamide], the Kb came to 0.188 µM.

Take `N#Cc1ccc(NC(=O)c2cnn(-c3cccc(F)c3)c2-c2ccncc2)cc1` [Example 4, 1-(3-Fluoro-phenyl)-5-pyridin-4-yl-1H-pyrazole4-carboxylic acid (4-cyano-phenyl)-amide]: the Kb turned out to be 0.139 µM.

(Values after patent publication US20070225335A1, “Pyrazole Derivatives for Treating Condit Ions Mediated by Activation of the Adeno Sine A2B or A3 Receptor” (priority 2004, published 2007).)
